Laboratory results taken from ChEMBL document CHEMBL5375988, “AcGlcAs: A Novel P53-Targeting Arsenical with Potent Cellular Uptake and Cancer Cell Selectivity” (J Med Chem, 2023).
Calls of active or inactive are those of the source. The rule behind the calls is not given here.

How the values were obtained:
[1] = target: T1, PML-RARalpha (Homo sapiens) (UniProt P10276+P29590); test: Induction of PML/RARalpha degradation in human NB4 cells assessed as residual protein level at 3 uM incubated for 1 hrs followed by replacement with fresh culture medium and measured after 16 hrs by Western blot analysis (reference value: 1); type: cell-based
[2] = tested on: Cellular tumor antigen p53 (Homo sapiens), P04637 [V272M]; test: Rescue of p53-V272M mutant transcriptional activity on PUMA promoter in human NCI-H1299 cells assessed as fold change in transcriptional activity at 10 uM pretreated for 10 mins to1 hr followed by replacement with fresh culture media and measured after 24 hrs by firefly/renilla based luciferase reporter assay; type: cell-based; details: filed as activator, time 10-60 min
[3] = Plasma stability in monkey assessed as half life at […] measured upto 120 mins by LC-MS analysis; type: ADME, cell-free, Macaca mulatta; details: rhesus monkey
[4] = Chemical stability of compound in PBS at 10 uM incubated for 1 hr by LC-MS analysis; type: physicochemical; details: buffer
U-937 [5] = test: Upregulation of MDM2 mRNA expression in human U-937 cells overexpressing p53-V272M mutant pretreated for 1 hr followed by culturing in fresh medium for 4 hrs by RT-qPCR analysis; type: functional, cell-based
U-937 [6] = test: Induction of intrinsic apoptosis in human U-937 cells overexpressing p53-V272M mutant assessed as upregulation of PUMA gene expression by RT-qPCR analysis; type: functional, cell-based
U-937 [7] = test: Upregulation of PUMA mRNA expression in human U-937 cells overexpressing p53-V272M mutant pretreated for 1 hr followed by culturing in fresh medium for 4 hrs by RT-qPCR analysis; type: functional, cell-based
[8] = target: T1, PML-RARalpha (Homo sapiens); test: Induction of PML/RARalpha degradation in human NB4 cells assessed as residual protein level at 0.3 uM incubated for 1 hrs followed by replacement with fresh culture medium and measured after 16 hrs by Western blot analysis (reference value: 1); type: cell-based
U-937 [9] = test: Upregulation of p21 mRNA expression in human U-937 cells overexpressing p53-V272M mutant pretreated for 1 hr followed by culturing in fresh medium for 4 hrs by RT-qPCR analysis; type: functional, cell-based
U-937 [10] = test: Induction of senescence in human U-937 cells overexpressing p53-V272M mutant assessed as upregulation of CDKN1A gene expression by RT-qPCR analysis; type: functional, cell-based
NB-4 [11] = test: Induction of apoptosis in human NB4 cells assessed as necrotic cells at 27 uM preincubated for 1 hrs followed by replacement with fresh culture medium and measured after 24 hrs by Annexin V-FITC/7AAD staining based flow cytometry assay (reference value: 0.18%); type: functional
[12] = tested on: Cellular tumor antigen p53 (Homo sapiens), P04637 [V272M]; test: Restoration of p53-V272M mutant transcriptional activity on PUMA promoter in human NCI-H1299 cells harboring siRNA-mediated CLIC1 knockdown incubated for 24 hrs by firefly/renilla based luciferase reporter assay; type: cell-based
[13] = tested on: Cellular tumor antigen p53 (Homo sapiens), P04637 [V272M]; test: Restoration of p53-V272M mutant transcriptional activity on PUMA promoter in human NCI-H1299 cells at 10 uM pretreated with -auranofin for 10 mins followed by compound addition for 10 mins and further incubation in fresh medium for 24 hrs by firefly/renilla based luciferase reporter assay; type: cell-based
[14] = Drug uptake in human HepG2 cells at 1 to 10 uM incubated for 5 mins at 4 degreeC by ICP-MS analysis; type: ADME, cell-based; details: hepg2, 5 min, dose 1-10 µM
U-937 [15] = test: Antitumor activity against luciferase transduced human U-937 cells harboring p53 V272M mutant xenografted in M-NSG mouse assessed as median survival at 10 mg/kg, iv administered daily for 11 days (reference value: 11 day); type: functional
[16] = target: T1, PML-RARalpha (Homo sapiens); test: Induction of PML/RARalpha (unknown origin) degradation overexpressed in HEK293T cells assessed as residual protein level at 2 to 6 uM incubated for 1 hrs followed by replacement with fresh culture medium and measured after 16 hrs by Western blot analysis; type: cell-based; details: dose 2-6 µM
U-937 [17] = test: Upregulation of p21 protein expression in human U-937 cells overexpressing p53-V272M mutant at 0.1 to 0.5 uM pretreated for 1 hr followed by culturing in fresh medium for 16 hrs by Western blot analysis; type: functional, cell-based; details: dose 0.1-0.5 µM
[18] = Drug uptake in human U-937 cells harboring p53-V272M mutant at 10 uM measured after 10 mins by ICP-MS analysis; type: ADME, cell-based; details: u-937, 10 min
NB-4 [19] = test: Induction of apoptosis in human NB4 cells assessed as viable cells at 9 uM preincubated for 1 hrs followed by replacement with fresh culture medium and measured after 24 hrs by Annexin V-FITC/7AAD staining based flow cytometry assay (reference value: 94%); type: functional; details: read-out: Activity
[20] = target: T1, PML-RARalpha (Homo sapiens); test: Induction of PML/RARalpha degradation in HEK293T cells at 3 uM incubated for 1 hrs followed by replacement with fresh culture medium and measured after 16 hrs by immunofluorescence analysis; type: cell-based
U-937 [21] = test: Induction of cell cycle arrest in human U-937 cells overexpressing p53-V272M mutant assessed as upregulation of BTG2 gene expression by RT-qPCR analysis; type: functional, cell-based
NB-4 [22] = test: Induction of apoptosis in human NB4 cells assessed as late apoptotic cells at 9 uM preincubated for 1 hrs followed by replacement with fresh culture medium and measured after 24 hrs by Annexin V-FITC/7AAD staining based flow cytometry assay (reference value: 3.71%); type: functional
NB-4 [23] = test: Induction of apoptosis in human NB4 cells assessed as early apoptotic cells at 3 uM preincubated for 1 hrs followed by replacement with fresh culture medium and measured after 24 hrs by Annexin V-FITC/7AAD staining based flow cytometry assay (reference value: 2.15%); type: functional
[24] = target: T1, PML-RARalpha (Homo sapiens); test: Induction of PML/RARalpha degradation in human NB4 cells assessed as downregulation of DLK1 mRNA expression incubated for 1 hrs followed by replacement with fresh culture medium for 6 hrs by RT-qPCR analysis; type: cell-based; details: dose 0.3-3 µM
U-937 [25] = test: Induction of extrinsic apoptosis in human U-937 cells overexpressing p53-V272M mutant assessed as upregulation of DR5 gene expression by RT-qPCR analysis; type: functional, cell-based
NB-4 [26] = test: Induction of granulocytic differentiation in human NB4 cells assessed as increase in CD11b expression at 3 uM incubated for 1 hrs followed by replacement with fresh culture medium for 48 hrs by flow cytometry analysis (reference value: 1.44%); type: functional
NB-4 [27] = test: Induction of granulocytic differentiation in human NB4 cells assessed as increase in CD11b expression at 9 uM incubated for 1 hrs followed by replacement with fresh culture medium for 48 hrs by flow cytometry analysis (reference value: 1.44%); type: functional
NCI-H1299 = test: Upregulation of PUMA mRNA expression in human NCI-H1299 cells overexpressing p53-V272M mutant at 2 uM pretreated for 1 hr followed by culturing in fresh medium for 8 hrs by RT-qPCR analysis; type: functional, cell-based
[28] = target: T1, PML-RARalpha (Homo sapiens); test: Induction of PML/RARalpha degradation in human NB4 cells assessed as decrease in micropunctuates at 3 uM incubated for 1 hrs followed by replacement with fresh culture medium and measured after 0.5 to 24 hrs by immunofluorescence analysis; type: cell-based
HL-60 = test: Upregulation of PUMA mRNA expression in human HL-60 cells overexpressing p53-V272M mutant at 2 uM pretreated for 1 hr followed by culturing in fresh medium for 8 hrs by RT-qPCR analysis; type: functional, cell-based
U-937 [29] = test: Induction of extrinsic apoptosis in human U-937 cells overexpressing p53-V272M mutant assessed as upregulation of FAS gene expression by RT-qPCR analysis; type: functional, cell-based

T1 sequence (P10276 whole entry, looked up): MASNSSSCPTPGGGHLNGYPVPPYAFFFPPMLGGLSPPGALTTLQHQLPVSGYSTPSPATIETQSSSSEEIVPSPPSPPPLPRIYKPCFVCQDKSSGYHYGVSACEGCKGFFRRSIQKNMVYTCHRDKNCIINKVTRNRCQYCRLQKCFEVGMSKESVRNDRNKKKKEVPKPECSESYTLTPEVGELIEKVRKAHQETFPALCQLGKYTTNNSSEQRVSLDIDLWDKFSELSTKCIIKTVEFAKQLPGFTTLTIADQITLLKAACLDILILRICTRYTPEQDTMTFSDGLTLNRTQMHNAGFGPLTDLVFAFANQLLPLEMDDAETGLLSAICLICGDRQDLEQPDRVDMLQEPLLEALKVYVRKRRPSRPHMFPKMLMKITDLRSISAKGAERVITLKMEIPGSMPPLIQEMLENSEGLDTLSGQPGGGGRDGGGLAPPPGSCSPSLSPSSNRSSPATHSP
T1 sequence (P29590 whole entry, looked up): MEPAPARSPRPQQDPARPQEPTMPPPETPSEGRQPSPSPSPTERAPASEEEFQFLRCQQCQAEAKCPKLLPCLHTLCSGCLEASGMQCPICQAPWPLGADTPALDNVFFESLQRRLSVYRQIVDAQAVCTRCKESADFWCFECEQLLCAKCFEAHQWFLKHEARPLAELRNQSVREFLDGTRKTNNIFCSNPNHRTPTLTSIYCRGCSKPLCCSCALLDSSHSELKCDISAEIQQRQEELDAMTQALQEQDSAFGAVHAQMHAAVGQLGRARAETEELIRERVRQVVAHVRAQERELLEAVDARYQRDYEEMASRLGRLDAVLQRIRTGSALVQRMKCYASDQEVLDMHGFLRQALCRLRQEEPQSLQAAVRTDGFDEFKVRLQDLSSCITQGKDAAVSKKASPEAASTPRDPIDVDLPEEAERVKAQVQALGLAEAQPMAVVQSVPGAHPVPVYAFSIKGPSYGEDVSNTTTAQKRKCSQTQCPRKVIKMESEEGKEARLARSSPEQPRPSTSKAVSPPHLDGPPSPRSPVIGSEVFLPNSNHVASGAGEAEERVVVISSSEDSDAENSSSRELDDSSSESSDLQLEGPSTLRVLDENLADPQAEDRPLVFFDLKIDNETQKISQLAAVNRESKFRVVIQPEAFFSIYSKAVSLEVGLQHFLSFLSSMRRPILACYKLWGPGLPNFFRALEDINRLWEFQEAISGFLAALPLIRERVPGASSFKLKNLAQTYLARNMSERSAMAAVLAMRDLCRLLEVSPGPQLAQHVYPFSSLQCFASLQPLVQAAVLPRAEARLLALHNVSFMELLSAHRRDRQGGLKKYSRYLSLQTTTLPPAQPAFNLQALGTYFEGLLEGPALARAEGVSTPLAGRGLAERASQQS

Which Activity [1] does the source give for `CC(=O)OC[C@H]1O[C@@H](S[As]2SCCS2)[C@H](OC(C)=O)[C@@H](OC(C)=O)[C@@H]1OC(C)=O` here?
The Activity was 0.18.

And the fold change (FC) [2]?
The fold change (FC) was 112.

And the half-life [3]?
Its half-life is 11.3 min.

What about the Stability [4] of the same compound?
The Stability was “Stable”.

And the Activity (U-937 [5])?
Its Activity is “Active”.

What about the Activity (U-937 [6]) of the same compound?
Its Activity is “Active”.

What about the Activity (U-937 [7]) of the same compound?
Its Activity is “Active”.

What about the Activity [8] of the same compound?
The Activity was 0.42.

And the Activity (U-937 [9])?
Its Activity is “Active”.

And the Activity (U-937 [10])?
The Activity was “Active”.

What about the Activity (NB-4 [11]) of the same compound?
The Activity was 1.3%.

And the Activity [12]?
The Activity was “inactive”.

What about the Activity [13] of the same compound?
Its Activity is “inactive”.

And the Drug uptake [14]?
The Drug uptake was “Not Active”.

And the MST (U-937 [15])?
The MST was 16 days.

And the Activity [16]?
The Activity was “Active”.

And the Activity (U-937 [17])?
The Activity was “Active”.

What about the Drug uptake [18] of the same compound?
Its Drug uptake is “Active”.

What about the viability at 9 µM (NB-4 [19]) of the same compound?
The viability at 9 µM was 85.6%.

What about the Activity [20] of the same compound?
Its Activity is “Active”.

What about the Activity (U-937 [21]) of the same compound?
Its Activity is “Active”.

What about the Activity (NB-4 [22]) of the same compound?
The Activity was 6.71%.

And the Activity (NB-4 [23])?
Its Activity is 4.21%.

What about the Activity [24] of the same compound?
Its Activity is “Dose-Dependent Effect”.

And the Activity (U-937 [25])?
Its Activity is “Active”.

And the Activity (NB-4 [26])?
Its Activity is 32.9%.

What about the Activity (NB-4 [27]) of the same compound?
Its Activity is 19%.

And the Activity (NCI-H1299)?
The Activity was “Active”.

What about the Activity [28] of the same compound?
The Activity was “Active”.

What about the Activity (HL-60) of the same compound?
Its Activity is “Active”.

And the Activity (U-937 [29])?
The Activity was “Active”.
